Results reported in patent US20220062166A1, “Self-Gelling Solutions for Administration of Therapeutics to the Inner Ear” (Spiral Therapeutics, Inc., priority 2019, published 2022).

What was measured:
[1] = GLP auditory safety study in rats after single TT administration
Procedure: The study consisted of 10 groups of rats: 6 groups for toxicology (Groups 1 to 6, 20 males and 20 females per group), and 4 groups for toxicokinetics (Groups 7 to 10, 6 males and 6 females per group).
All animals were assessed weekly for body weights and qualitative food consumption. In addition, otoscopic evaluation of the dosing sites (tympanic membrane, Groups 1 to 6) and ABR testing for hearing function were performed at predosing; and on Days 1, 7, and/or 14. Animals in the toxicology groups (Groups 1 to 6) were sacrificed on Day 1 (10 males and 10 females per group) and Day 14 (the remaining 10 males and 10 females per group). At necropsy, terminal blood samples were tested for hematology, serum chemistry, and coagulation parameters. Gross observations were recorded, and selected organs were weighed. One ear per animal in Groups 1 to 5 was collected and processed for cytocochleogram assessment.

[2] = system: HEI-OC1 cells; assay: HEI-OC1 cell viability with CisPt; type: cell-based; details: CisPt 0 to 5 μg/mL
[3] = system: HEI-OC1 cells; assay: Release of mitochondrial cyt c in HEI-OC1 cells with CisPt (flow cytometry); type: cell-based; details: HEI-OC1 cells; after CisPt alone or pre-incubated with LPT99
Procedure: Flow cytometry was also used to characterize the effect of LPT99 in the release of mitochondrial cyt c in HEI-OC1 cells in vitro with CisPt prevention. Results
The effect of LPT99 on proliferation of non-apoptotic cells was studied. A549 cells were cultured in the presence of LPT99 for up to 6 days; the cell number was monitored by flow cytometry, and doubling time was calculated.

Molecule | weight-normalized heart weights ([1]; Day 14, males, 400 mg/mL gentamicin vs saline controls, p≥0.05) | otoscopic scores (erythema, edema, wounds) of tympanic membranes ([1]; Days 1, 7, 14 vs control) | HEI-OC1 cell viability IC50 of CisPt [2] | release of mitochondrial cyt c [3]
gentamicin [reference compound] | increased weight-normalized heart weights | increases in otoscopic scores |  | 
N.N.[Cl][Pt][Cl] [CisPt, cisplatin, reference compound] |  |  | 4.47 ± 1.94 µg/mL | 28% ±6.6%
